Data taken from publication PMC12589998, “Development and validation of a UHPLC-QqQ-MS/MS method for simultaneous determination of fifteen major components from Oroxyli seed extract in rat plasma and its application in the pharmacokinetic study” (Frontiers in Pharmacology, 2025).
“Also recorded” adds a separate entry of the source. Read-outs that look alike come from different tables or passages of the source.

Key:
[1] = Pharmacokinetic study in rats after oral administration of OS extract (UHPLC-QqQ-MS/MS of plasma); assay type: in vivo, rat; conditions: for concentration at 0.5 h: SD, 3 g/kg, rat plasma collected 0.5 h after oral administration of the OS extract, read-out: Concentration printed in MRM chromatogram of plasma sample (Figure 2C)
Protocol: The UHPLC-QqQ-MS/MS system consisted of a 1290 UHPLC and a 6470 mass spectrometer (Agilent Technologies). Chromatographic separation was realized on utilizing an ACQUITY UPLC BEH C18 column (2.1 × 100 mm, 1.7 μm) maintained at 35 °C. The mobile phase consisting of 0.1% formic acid in water (A) and acetonitrile (B) was utilized with the elution program set at 0 min–1 min, 5% B–30% B; 1 min–4 min, 30% B– 50% B; 4 min–8 min, and 50% B–90% B. The injection volume was 5 μL, and the flow rate was 0.3 mL/min. The mass spectrometry parameters in the negative ion mode, gas temperature, flow rate, and nebulizer pressure were 300 °C, 7 L/min, and 35 psi, respectively. The mass spectra properties of the 15 analytes and the IS are illustrated in Table 1.
To 100 μL of the plasma sample, 20 μL of methanol, 20 μL of IS solution (methylparaben, 1 μg/mL), and 5 μL of formic acid were added and vortexed for a duration of 2 min. Subsequently, the mixture underwent extraction with 800 μL of acetonitrile for 3 min. Following 10 min of centrifugation at 12,000 g, the supernatant was collected and evaporated to dryness under N2 to obtain the residue. Finally, the residue was reconstituted in 50% methanol (100 μL) and utilized for analysis.
Before initiating the study, six male SD rats underwent a 12-h fasting period, during which they were granted unrestricted access to water. Then, the rats were administered an oral dose of 3 g/kg of the OS extract, which had been dissolved in 0.5% CMC-Na aqueous solution. Blood samples, approximately 200 μL each, were collected at various time points: before administration and at 0.03, 0.08, 0.17, 0.25, 0.5, 0.75, 1, 2, 4, 6, 8, 10, 12, 24, 36, and 48 h post-administration. Following 10 min of centrifugation at 6,000 g, the resultant samples were stored at −80 °C.
The developed method was effectively applied to study the pharmacokinetics in rats following oral administration of the OS extract. […] This was likely due to their low concentrations in the OS extract. Ultimately, nine components (chrysin, chrysin-7-O-β-D-glucuronide, baicalin, baicalein, oroxin A, oroxin B, oroxylin A, oroxylin A-7-O-β-D-glucuronide, and scutellarein) were successfully fitted with pharmacokinetic parameters. The average plasma concentration–time profiles of these substances are depicted in Figure 3. […] All data were presented as the mean ± standard deviation (Mean ± SD).

[2] = Stability of the analytes in rat plasma samples under storage conditions; assay type: physicochemical; conditions: n = 6
Protocol: The bioanalytical method validation was evaluated for specificity, linearity, sensitivity, precision and accuracy, recovery, matrix effect, and stability to ensure compliance with the U.S. Food and Drug Administration (FDA) guidance on precise quantitative analysis ([Center for Drug Evaluation and Research of the U.S., 2018]). The assessment of specificity was conducted by comparing the chromatograms obtained from blank plasma, blank plasma spiked with the target components, and samples gathered following the oral administration of OS extract. Calibration curves were constructed by plotting the ratio for the peak area of the analyte to IS versus the concentration, with 1/x^2 serving as the weighting factor. The lower limit of quantification (LLOQ) was defined as the concentration at which a signal to noise ratio of […] 10 was achievable. The evaluation of precision and accuracy involved the analysis of six QC samples, both within a single day and over 3 consecutive days. Accuracy was expressed as the relative error (RE), whereas precision was gauged via relative standard deviation (RSD). Extraction recovery was ascertained by juxtaposing the responses of analytes in extracted samples against those in samples that were spiked post-extraction. The matrix effect was scrutinized by determining the ratio of the responses of the analytes in post-extraction spiked samples to those in the mixed standard solution. The stability of the analytes in plasma samples was explored under diverse conditions: encompassing a 12-h period in an autosampler, a 4-h interval at room temperature, three cycles of freezing–thawing, and a 7-day duration at −80 °C.
The retention times of the analyte peaks were consistent with those in the spiked samples. […] The LLOQs for chrysin, chrysin-7-O-β-D-glucuronide, hispidulin, wogonoside, quercetin, quercetin-7-O-β-D-glucoside, baicalin, baicalein, acacetin, oroxin A, oroxin B, oroxylin A, oroxylin A-7-O-β-D-glucuronide, apigenin, and scutellarein were 1.0, 2.0, 1.0, 0.3, 1.0, 0.1, 9.0, 6.0, 0.3, 6.0, 4.0, 1.0, 2.0, 0.5, and 0.3 ng/mL, respectively. In Supplementary Table S2, the RE for accuracy is between −13.77% and 12.55%, and the RSD for precision is below 14.55% (both intra- and inter-day). […] The matrix effect varied from 60.15% to 115.53%, with RSD values below 10.54%. In Supplementary Table S4, the RSD values for stability of the analytes are found to be lower than 13.98%, meaning that these components were stable under the following conditions: encompassing a 12-h period in an autosampler, a 4-h interval at room temperature, three cycles of freezing and thawing, and a 7-day duration at −80 °C.

[3] = rat plasma after oral OS extract
[4] = spiked concentration 1600 ng/mL

concentration at 0.5 h ([1]; male) [ng/mL] | Compound | Plasma levels [1, 3] | Measured, -80°C for 7 days ([2]; spiked concentration 2 ng/mL) [ng/mL] | Measured, Autosampler for 12 h ([2]; spiked concentration 2 ng/mL) [ng/mL] | Measured, Room temperature for 4 h ([2]; spiked concentration 2 ng/mL) [ng/mL] | Measured, Three freeze-thaw cycles ([2]; spiked concentration 2 ng/mL) [ng/mL] | Measured, -80°C for 7 days ([2]; spiked concentration 20 ng/mL) [ng/mL] | Measured, Autosampler for 12 h ([2]; spiked concentration 20 ng/mL) [ng/mL] | Measured, Room temperature for 4 h ([2]; spiked concentration 20 ng/mL) [ng/mL] | Measured, Three freeze-thaw cycles ([2]; spiked concentration 20 ng/mL) [ng/mL] | Measured, -80°C for 7 days ([2]; spiked concentration 320 ng/mL) [ng/mL] | Measured, Autosampler for 12 h ([2]; spiked concentration 320 ng/mL) [ng/mL] | Measured, Room temperature for 4 h ([2]; spiked concentration 320 ng/mL) [ng/mL] | Measured, Three freeze-thaw cycles ([2]; spiked concentration 320 ng/mL) [ng/mL] | further results
 | COc1c(O)cc2oc(-c3ccc(O)cc3)cc(=O)c2c1O [Hispidulin, hispidulin] | too weak to obtain comprehensive pharmacokinetic curves | 1.85 ± 0.14 | 1.79 ± 0.08 | 1.87 ± 0.12 | 1.77 ± 0.14 | 19.90 ± 2.31 | 21.61 ± 2.09 | 21.29 ± 2.88 | 20.10 ± 2.62 | 280.72 ± 21.00 | 304.61 ± 18.62 | 315.17 ± 13.17 | 289.06 ± 17.23 | concentration at 0.5 h ([1]; male, in vivo): 36 ng/mL
61 | COc1c(O[C@@H]2O[C@H](C(=O)O)[C@@H](O)[C@H](O)[C@H]2O)cc2oc(-c3ccccc3)cc(=O)c2c1O [Oroxylin A-7-O-β-D-glucuronide, oroxylin A-7-O-β-D-glucuronide] |  |  |  |  |  |  |  |  |  |  |  |  |  | AUC(0-t) ([1]; male, rat plasma, oral 3 g/kg OS extract, n = 6, mean ± SD, read-out: AUC(0-t)): 11400 ng·h/mL; AUC(0-inf) ([1]; male, rat plasma, oral 3 g/kg OS extract, n = 6, mean ± SD, read-out: AUC(0-∞)): 11600 ng·h/mL; Cmax ([1]; male, rat plasma, oral 3 g/kg OS extract, n = 6, mean ± SD, read-out: Cmax): 912 ± 350 ng/mL; half-life ([1]; male, rat plasma, oral 3 g/kg OS extract, n = 6, mean ± SD, read-out: T1/2 (converted)): 7.22 ± 1.04 h; Tmax ([1]; male, rat plasma, oral 3 g/kg OS extract, n = 6, mean ± SD, read-out: Tmax): 9.6 ± 1.67 h; Shape of plasma concentration-time curve [1, 3]: significant bimodal phenomena; also recorded: clear bimodal phenomena; Measured, -80°C for 7 days ([2]; spiked concentration 10 ng/mL): 9.25 ± 0.47 ng/mL; Measured, Autosampler for 12 h ([2]; spiked concentration 10 ng/mL): 9.44 ± 1.32 ng/mL; Measured, Room temperature for 4 h ([2]; spiked concentration 10 ng/mL): 11.03 ± 0.43 ng/mL; Measured, Three freeze-thaw cycles ([2]; spiked concentration 10 ng/mL): 9.21 ± 0.83 ng/mL; Measured, -80°C for 7 days ([2]; spiked concentration 100 ng/mL): 95.03 ± 7.93 ng/mL; Measured, Autosampler for 12 h ([2]; spiked concentration 100 ng/mL): 98.52 ± 5.58 ng/mL; Measured, Room temperature for 4 h ([2]; spiked concentration 100 ng/mL): 108.86 ± 4.87 ng/mL; Measured, Three freeze-thaw cycles ([2]; spiked concentration 100 ng/mL): 90.02 ± 5.94 ng/mL; Measured, -80°C for 7 days [2, 4]: 1626.95 ± 164.45 ng/mL; Measured, Autosampler for 12 h [2, 4]: 1793.11 ± 46.98 ng/mL; Measured, Room temperature for 4 h [2, 4]: 1799.31 ± 27.98 ng/mL; Measured, Three freeze-thaw cycles [2, 4]: 1550.12 ± 77.94 ng/mL
8 | COc1ccc(-c2cc(=O)c3c(O)cc(O)cc3o2)cc1 [Acacetin, acacetin] | too weak to obtain comprehensive pharmacokinetic curves | 1.78 ± 0.11 | 1.78 ± 0.15 | 2.20 ± 0.04 | 1.81 ± 0.06 | 17.78 ± 0.87 | 22.01 ± 1.07 | 21.25 ± 1.13 | 17.60 ± 1.24 | 284.83 ± 15.85 | 317.16 ± 38.69 | 313.68 ± 7.94 | 282.90 ± 15.75 | 
